Laboratory results taken from patent publication US20240025884A1 (Dong-A ST Co., Ltd., priority 2022, published 2024).
pIC50: −log10 of the molar value.

molecular target: GCN2 (Homo sapiens (Human), UniProt Q9P2K8); assay: GCN2 Biochemical Assay (TR-FRET, GFP-eIF2S1 substrate phosphorylation); conditions: read-out: IC50 (GCN2 Inhibitory Activity)
Procedure, shortened: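 TR-FRET readout (Ex 340, Em 490/520 nm) after 2–3 h with Tb-labelled phospho-eIF2S1 antibody in stop mix, following a 70 min room-temperature kinase step. Reaction: in-house GCN2, GFP-eIF2S1, ATP, tRNA in Tris pH 7.5 (2× stocks 1.6 nM, 50 nM, 0.2 mM); compounds tested at 10 concentrations, with a phospho-substrate artifact counter-plate.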

GCN2, sequence (Q9P2K8 whole entry): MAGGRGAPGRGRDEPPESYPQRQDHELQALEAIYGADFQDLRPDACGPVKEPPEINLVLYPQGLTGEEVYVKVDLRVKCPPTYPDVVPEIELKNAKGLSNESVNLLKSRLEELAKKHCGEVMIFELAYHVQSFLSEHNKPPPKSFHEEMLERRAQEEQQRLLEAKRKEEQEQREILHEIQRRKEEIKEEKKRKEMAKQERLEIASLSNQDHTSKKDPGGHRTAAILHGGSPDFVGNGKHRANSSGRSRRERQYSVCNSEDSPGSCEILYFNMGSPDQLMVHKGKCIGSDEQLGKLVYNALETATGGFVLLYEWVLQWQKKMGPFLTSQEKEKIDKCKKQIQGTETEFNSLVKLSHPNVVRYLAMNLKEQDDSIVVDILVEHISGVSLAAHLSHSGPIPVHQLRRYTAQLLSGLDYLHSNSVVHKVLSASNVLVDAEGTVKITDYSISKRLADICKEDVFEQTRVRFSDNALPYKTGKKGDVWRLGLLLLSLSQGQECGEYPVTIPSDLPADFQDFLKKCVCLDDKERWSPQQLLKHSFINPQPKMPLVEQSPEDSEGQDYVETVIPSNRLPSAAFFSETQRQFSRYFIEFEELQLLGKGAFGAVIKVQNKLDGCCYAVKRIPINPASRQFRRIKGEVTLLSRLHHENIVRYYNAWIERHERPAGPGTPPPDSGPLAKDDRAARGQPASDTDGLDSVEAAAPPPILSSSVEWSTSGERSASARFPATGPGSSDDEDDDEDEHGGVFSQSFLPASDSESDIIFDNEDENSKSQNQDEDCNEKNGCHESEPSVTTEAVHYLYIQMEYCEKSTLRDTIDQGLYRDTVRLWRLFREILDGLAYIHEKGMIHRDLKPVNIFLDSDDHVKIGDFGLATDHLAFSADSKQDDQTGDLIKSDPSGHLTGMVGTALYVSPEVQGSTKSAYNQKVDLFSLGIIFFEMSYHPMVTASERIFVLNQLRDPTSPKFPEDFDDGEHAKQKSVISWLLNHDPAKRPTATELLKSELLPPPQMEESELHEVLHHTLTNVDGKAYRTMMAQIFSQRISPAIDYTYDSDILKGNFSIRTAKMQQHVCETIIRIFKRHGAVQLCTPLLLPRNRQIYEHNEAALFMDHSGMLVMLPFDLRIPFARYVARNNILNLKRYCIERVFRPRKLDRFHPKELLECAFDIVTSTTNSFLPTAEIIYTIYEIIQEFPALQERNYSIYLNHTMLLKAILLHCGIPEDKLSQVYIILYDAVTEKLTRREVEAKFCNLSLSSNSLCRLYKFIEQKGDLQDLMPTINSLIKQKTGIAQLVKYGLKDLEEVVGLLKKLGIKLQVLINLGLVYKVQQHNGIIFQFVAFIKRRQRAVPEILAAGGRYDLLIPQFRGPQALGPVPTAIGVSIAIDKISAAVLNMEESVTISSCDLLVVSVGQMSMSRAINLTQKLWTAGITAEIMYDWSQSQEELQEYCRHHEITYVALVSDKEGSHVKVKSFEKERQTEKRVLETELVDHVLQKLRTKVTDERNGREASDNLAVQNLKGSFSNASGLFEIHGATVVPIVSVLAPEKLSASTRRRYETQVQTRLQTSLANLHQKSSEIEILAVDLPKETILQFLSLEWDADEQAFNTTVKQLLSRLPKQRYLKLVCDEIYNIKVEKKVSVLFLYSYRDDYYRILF

pIC50 | SMILES
7.00 to 8.00 | Cc1cncc(C(=O)Nc2cccc3c2CN(c2cccc4c(-c5nc(Nc6cc(C)n(C)n6)ncc5C)c[nH]c24)C3=O)c1 [Example 334, N-(2-(3-(2-((1,5-dimethyl-1H-pyrazol-3-yl)amino)-5-methylpyrimidin-4-yl)-1H-indol-7-yl)-1-oxoisoindolin-4-yl)-5-methylnicotinamide]
> 8.00 | Cc1cnc(Nc2cc(C)n(C)n2)nc1-c1c[nH]c2c(N3Cc4c(NC(=O)CN(C)C)cccc4C3=O)cccc12 [Example 335, N-(2-(3-(2-((1,5-dimethyl-1H-pyrazol-3-yl)amino)-5-methylpyrimidin-4-yl)-1H-indol-7-yl)-1-oxoisoindolin-4-yl)-2-(dimethylamino)acetamide]
7.00 to 8.00 | Cc1cnc(Nc2cc(C)n(C)n2)nc1-c1c[nH]c2c(N3Cc4c(NC(=O)C5CCCC5)cccc4C3=O)cccc12 [Example 336, N-(2-(3-(2-((1,5-dimethyl-1H-pyrazol-3-yl)amino)-5-methylpyrimidin-4-yl)-1H-indol-7-yl)-1-oxoisoindolin-4-yl)cyclopentanecarboxamide]
> 8.00 | Cc1cnc(Nc2cc(C)n(C)n2)nc1-c1c[nH]c2c(N3Cc4c(NC(=O)C5CCOCC5)cccc4C3=O)cccc12 [Example 337, N-(2-(3-(2-((1,5-dimethyl-1H-pyrazol-3-yl)amino)-5-methylpyrimidin-4-yl)-1H-indol-7-yl)-1-oxoisoindolin-4-yl)tetrahydro-2H-pyran-4-carboxamide]
7.00 to 8.00 | Cc1cnc(Nc2cc(C)n(C)n2)nc1-c1c[nH]c2c(N3Cc4c(NC(=O)c5ccoc5)cccc4C3=O)cccc12 [Example 338, N-(2-(3-(2-((1,5-dimethyl-1H-pyrazol-3-yl)amino)-5-methylpyrimidin-4-yl)-1H-indol-7-yl)-1-oxoisoindolin-4-yl)furan-3-carboxamide]
> 8.00 | Cc1cnc(Nc2cc(C)n(C)n2)nc1-c1c[nH]c2c(N3Cc4c(NC(=O)c5cc(O)ncn5)cccc4C3=O)cccc12 [Example 339, N-(2-(3-(2-((1,5-dimethyl-1H-pyrazol-3-yl)amino)-5-methylpyrimidin-4-yl)-1H-indol-7-yl)-1-oxoisoindolin-4-yl)-6-hydroxypyrimidine-4-carboxamide]
6.00 to 7.00 | Cc1cnc(Nc2cc(C)n(C)n2)nc1-c1c[nH]c2c(N3Cc4cccc(NS(=O)(=O)c5ccccc5)c4C3=O)cccc12 [Example 340, N-(2-(3-(2-((1,5-dimethyl-1H-pyrazol-3-yl)amino)-5-methylpyrimidin-4-yl)-1H-indol-7-yl)-3-oxoisoindolin-4-yl)benzenesulfonamide]
> 8.00 | Cc1cnc(Nc2cc(C)n(C)n2)nc1-c1c[nH]c2c(N3Cc4c(NS(=O)(=O)c5ccccc5)cccc4C3=O)cccc12 [Example 341, N-(2-(3-(2-((1,5-dimethyl-1H-pyrazol-3-yl)amino)-5-methylpyrimidin-4-yl)-1H-indol-7-yl)-1-oxoisoindolin-4-yl)benzenesulfonamide]
> 8.00 | Cc1cnc(Nc2cc(C)n(C)n2)nc1-c1c[nH]c2c(N3Cc4c(NS(C)(=O)=O)cccc4C3=O)cccc12 [Example 342, N-(2-(3-(2-((1,5-dimethyl-1H-pyrazol-3-yl)amino)-5-methylpyrimidin-4-yl)-1H-indol-7-yl)-1-oxoisoindolin-4-yl)methanesulfonamide]
7.00 to 8.00 | Cc1ccc(S(=O)(=O)Nc2cccc3c2CN(c2cccc4c(-c5nc(Nc6cc(C)n(C)n6)ncc5C)c[nH]c24)C3=O)cc1 [Example 343, N-(2-(3-(2-((1,5-dimethyl-1H-pyrazol-3-yl)amino)-5-methylpyrimidin-4-yl)-1H-indol-7-yl)-1-oxoisoindolin-4-yl)-4-methylbenzenesulfonamide]
> 8.00 | Cc1cnc(Nc2cc(C)n(C)n2)nc1-c1c[nH]c2c(N3Cc4c(NS(=O)(=O)C(C)C)cccc4C3=O)cccc12 [Example 344, N-(2-(3-(2-((1,5-dimethyl-1H-pyrazol-3-yl)amino)-5-methylpyrimidin-4-yl)-1H-indol-7-yl)-1-oxoisoindolin-4-yl)propane-2-sulfonamide]
7.00 to 8.00 | Cc1cc(S(=O)(=O)Nc2cccc3c2CN(c2cccc4c(-c5nc(Nc6cc(C)n(C)n6)ncc5C)c[nH]c24)C3=O)ccc1F [Example 345, N-(2-(3-(2-((1,5-dimethyl-1H-pyrazol-3-yl)amino)-5-methylpyrimidin-4-yl)-1H-indol-7-yl)-1-oxoisoindolin-4-yl)-4-fluoro-3-methylbenzenesulfonamide]
6.00 to 7.00 | Cc1cnc(Nc2cc(C)n(C)n2)nc1-c1c[nH]c2c(N3Cc4cccc(Nc5ccccc5)c4C3=O)cccc12 [Example 346, 2-(3-(2-((1,5-dimethyl-1H-pyrazol-3-yl)amino)-5-methylpyrimidin-4-yl)-1H-indol-7-yl)-7-(phenylamino)isoindolin-1-one]
7.00 to 8.00 | Cc1cnc(Nc2cc(C)n(C)n2)nc1-c1c[nH]c2c(N3Cc4cccc(N5CCOCC5)c4C3=O)cccc12 [Example 347, 2-(3-(2-((1,5-dimethyl-1H-pyrazol-3-yl)amino)-5-methylpyrimidin-4-yl)-1H-indol-7-yl)-7-morpholinoisoindolin-1-one]
7.00 to 8.00 | Cc1cnc(Nc2cc(C)n(C)n2)nc1-c1c[nH]c2c(N3Cc4cccc(N5CCN(C)CC5)c4C3=O)cccc12 [Example 348, 2-(3-(2-((1,5-dimethyl-1H-pyrazol-3-yl)amino)-5-methylpyrimidin-4-yl)-1H-indol-7-yl)-7-(4-methylpiperazin-1-yl)isoindolin-1-one]
7.00 to 8.00 | Cc1cnc(Nc2cc(C)n(C)n2)nc1-c1c[nH]c2c(N3Cc4cccc(N(C)C)c4C3=O)cccc12 [Example 349, 2-(3-(2-((1,5-dimethyl-1H-pyrazol-3-yl)amino)-5-methylpyrimidin-4-yl)-1H-indol-7-yl)-7-(dimethylamino)isoindolin-1-one]
6.00 to 7.00 | Cc1cnc(Nc2cc(C)n(C)n2)nc1-c1c[nH]c2c(N3Cc4cccc(NCc5ccccc5)c4C3=O)cccc12 [Example 350, 7-(benzylamino)-2-(3-(2-((1,5-dimethyl-1H-pyrazol-3-yl)amino)-5-methylpyrimidin-4-yl)-1H-indol-7-yl)isoindolin-1-one]
6.00 to 7.00 | Cc1cnc(Nc2cc(C)n(C)n2)nc1-c1c[nH]c2c(N3Cc4cccc(NCC5CC5)c4C3=O)cccc12 [Example 351, 7-((cyclopropylmethyl)amino)-2-(3-(2-((1,5-dimethyl-1H-pyrazol-3-yl)amino)-5-methylpyrimidin-4-yl)-1H-indol-7-yl)isoindolin-1-one]
> 8.00 | Cc1cnc(Nc2cc(C)n(C)n2)nc1-c1c[nH]c2c(N3Cc4c(cccc4N4CCOCC4)C3=O)cccc12 [Example 352, 2-(3-(2-((1,5-dimethyl-1H-pyrazol-3-yl)amino)-5-methylpyrimidin-4-yl)-1H-indol-7-yl)-4-morpholinoisoindolin-1-one]
7.00 to 8.00 | Cc1cnc(Nc2cc(C)n(C)n2)nc1-c1c[nH]c2c(N3Cc4c(NCC5CC5)cccc4C3=O)cccc12 [Example 353, 4-((cyclopropylmethyl)amino)-2-(3-(2-((1,5-dimethyl-1H-pyrazol-3-yl)amino)-5-methylpyrimidin-4-yl)-1H-indol-7-yl)isoindolin-1-one]
7.00 to 8.00 | Cc1cnc(Nc2cc(C)n(C)n2)nc1-c1c[nH]c2c(N3Cc4c(NCc5ccccc5)cccc4C3=O)cccc12 [Example 354, 4-(benzylamino)-2-(3-(2-((1,5-dimethyl-1H-pyrazol-3-yl)amino)-5-methylpyrimidin-4-yl)-1H-indol-7-yl)isoindolin-1-one]
< 6.00 | Cc1cnc(Nc2cc(C)n(C)n2)nc1-c1c[nH]c2c(N3Cc4ccc(C#Cc5ccccc5)cc4C3=O)cccc12 [Example 355]
6.00 to 7.00 | Cc1cnc(Nc2cc(C)n(C)n2)nc1-c1c[nH]c2c(N3Cc4c(C#Cc5ccccc5)cccc4C3=O)cccc12 [Example 356, 2-(3-(2-((1,5-dimethyl-1H-pyrazol-3-yl)amino)-5-methylpyrimidin-4-yl)-1H-indol-7-yl)-4-(phenylethynyl)isoindolin-1-one]
7.00 to 8.00 | Cc1cnc(Nc2cc(C)n(C)n2)nc1-c1c[nH]c2c(N3Cc4c(C#Cc5ccc(N)cc5)cccc4C3=O)cccc12 [Example 357, 4-((4-aminophenyl)ethynyl)-2-(3-(2-((1,5-dimethyl-1H-pyrazol-3-yl)amino)-5-methylpyrimidin-4-yl)-1H-indol-7-yl)isoindolin-1-one]
> 8.00 | Cc1cnc(Nc2cc(C)n(C)n2)nc1-c1c[nH]c2c(N3Cc4c(/C=C/C(N)=O)cccc4C3=O)cccc12 [Example 358, (E)-3-(2-(3-(2-((1,5-dimethyl-1H-pyrazol-3-yl)amino)-5-methylpyrimidin-4-yl)-1H-indol-7-yl)-1-oxoisoindolin-4-yl)acrylamide]
7.00 to 8.00 | Cc1cnc(Nc2cc(C)n(C)n2)nc1-c1c[nH]c2c(N3Cc4c(/C=C/C(=O)N(C)C)ccc(F)c4C3=O)cccc12 [Example 359, (E)-3-(2-(3-(2-((1,5-dimethyl-1H-pyrazol-3-yl)amino)-5-methylpyrimidin-4-yl)-1H-indol-7-yl)-7-fluoro-1-oxoisoindolin-4-yl)-N,N-dimethylacrylamide]
> 8.00 | Cc1cnc(Nc2cc(C)n(C)n2)nc1-c1c[nH]c2c(N3Cc4c(/C=C/C(=O)N(C)C)cccc4C3=O)cccc12 [Example 360, (E)-3-(2-(3-(2-((1,5-dimethyl-1H-pyrazol-3-yl)amino)-5-methylpyrimidin-4-yl)-1H-indol-7-yl)-1-oxoisoindolin-4-yl)-N,N-dimethylacrylamide]
> 8.00 | C/C(=C\c1cccc2c1CN(c1cccc3c(-c4nc(Nc5cc(C)n(C)n5)ncc4C)c[nH]c13)C2=O)C(N)=O [Example 361, (E)-3-(2-(3-(2-((1,5-dimethyl-1H-pyrazol-3-yl)amino)-5-methylpyrimidin-4-yl)-1H-indol-7-yl)-1-oxoisoindolin-4-yl)-2-methylacrylamide]
